# Square brackets hold non-standard residues; d marks the D form. Ends that are not written are not given here. * marks the point of attachment. Arachidoyl = CCCCCCCCCCCCCCCCCCCC(=O)*; Palmitoyl = CCCCCCCCCCCCCCCC(=O)*; Myristoyl = CCCCCCCCCCCCCC(=O)*
# Experiment: Inhibition of food intake, subcutaneous injection to fasted rats
# Format: in vivo, Wistar rats
# Procedure: Animals: All animal procedures were approved by the British Home Office Animals (Scientific Procedures) Act 1986 (Project License number 70/5516).
# Study protocol: C57BL/6 mice (20-35 g) were injected with the peptide under investigation following a 20-hour fast. Wistar rats were injected following a 24-hour fast. […] A pre-weighed quantity of chow was presented immediately after injection.
substance,measurement,setting,value
D-His Ala Asp Gly Thr Phe Thr Ser Asp Tyr Ser Lys Tyr Leu Glu Glu Glu Ile Val Lys Tyr Phe Ile Gln Trp Leu Met Asn Thr Lys Arg Asn Lys Asn Asn Ile Ala Lys ([dH]ADGTFTSDYSKYLEEEIVKYFIQWLMNTKRNKNNIAK) [PEPTIDE NO: 203],food intake suppression continues for,"100 nmoles/kg, 24 hours observed",≥ 24 h
same,Mean cumulative food intake in comparison to saline control,"100 nmoles/kg, over 24 hours",potent and long acting suppression of food intake
same,food intake in comparison to control group treated with native oxyntomodulin,"100 nmoles/kg, over 24 hours",lower than in the control group treated with native oxyntomodulin
D-His Ala Asp Gly Thr Phe Thr Ser Asp Tyr Ser Lys Tyr Leu Glu Glu Glu Ile Val Lys Tyr Phe Ile Glu Trp Leu Lys Asn Gly Gly Pro Ser Lys Asn Asn Ile Ala ([dH]ADGTFTSDYSKYLEEEIVKYFIEWLKNGGPSKNNIA) [PEPTIDE NO: 164],food intake suppression continues for,"4 nmoles/kg, 48 hours observed",≥ 48 h
same,Mean cumulative food intake in comparison to saline control,"4 nmoles/kg, over 48 hours",potent and long acting suppression of food intake
same,food intake in comparison to control group treated with native oxyntomodulin,"4 nmoles/kg, over 48 hours",lower than in the control group treated with native oxyntomodulin
D-His Ala Asp Gly Thr Phe Thr Ser Asp Tyr Ser Lys Tyr Leu Glu Glu Glu Leu Val Lys Tyr Phe Ile Gln Trp Leu Lys Asn Gly Gly Pro Ser Lys Asn Asn Ile Ala ([dH]ADGTFTSDYSKYLEEELVKYFIQWLKNGGPSKNNIA) [PEPTIDE NO: 155],food intake suppression continues for,"4 nmoles/kg, 32 hours observed",≥ 32 h
same,Mean cumulative food intake in comparison to saline control,"4 nmoles/kg, over 32 hours",potent and long acting suppression of food intake
same,food intake in comparison to control group treated with native oxyntomodulin,"4 nmoles/kg, over 32 hours",lower than in the control group treated with native oxyntomodulin
D-His Ala Asp Gly Thr Phe Thr Ser Asp Tyr Ser Lys Tyr Leu Glu Glu Glu Leu Val Lys Tyr Phe Ile Gln Trp Leu Lys Asn Gly Gly Pro Ser Lys Asn Asn Ile Ala Ala Ala Lys-arachidoyl ([dH]ADGTFTSDYSKYLEEELVKYFIQWLKNGGPSKNNIAAAK(Arachidoyl)) [PEPTIDE NO: 209],food intake in comparison to control group treated with native oxyntomodulin,"80 mmoles/kg, over 48 hours",lower than in the control group treated with native oxyntomodulin
same,Mean cumulative food intake in comparison to saline control,over 48 hours,potent and long acting suppression of food intake
D-His Ala Asp Gly Thr Phe Thr Ser Asp Tyr Ser Lys Tyr Leu Glu Glu Glu Leu Val Lys Tyr Phe Ile Gln Trp Leu Lys Asn Gly Gly Pro Ser Lys Asn Asn Ile Ala Ala Ala Lys-myristoyl ([dH]ADGTFTSDYSKYLEEELVKYFIQWLKNGGPSKNNIAAAK(Myristoyl)) [PEPTIDE NO: 206],food intake in comparison to control group treated with native oxyntomodulin,"80 mmoles/kg, over 48 hours",lower than in the control group treated with native oxyntomodulin
same,Mean cumulative food intake in comparison to saline control,over 48 hours,potent and long acting suppression of food intake
D-His Ala Asp Gly Thr Phe Thr Ser Asp Tyr Ser Lys Tyr Leu Glu Glu Glu Leu Val Lys Tyr Phe Ile Gln Trp Leu Lys Asn Gly Gly Pro Ser Lys Asn Asn Ile Ala Ala Ala Lys-palmitoyl ([dH]ADGTFTSDYSKYLEEELVKYFIQWLKNGGPSKNNIAAAK(Palmitoyl)) [PEPTIDE NO: 207],food intake in comparison to control group treated with native oxyntomodulin,"80 mmoles/kg, over 48 hours",lower than in the control group treated with native oxyntomodulin
same,Mean cumulative food intake in comparison to saline control,over 48 hours,potent and long acting suppression of food intake
D-His Ala Asp Gly Thr Phe Thr Ser Asp Tyr Ser Lys Tyr Leu Glu Glu Glu Leu Val Lys Tyr Phe Ile Gln Trp Leu Lys Asn Gly Gly Pro Ser Lys Asn Asn Ile Ala Lys ([dH]ADGTFTSDYSKYLEEELVKYFIQWLKNGGPSKNNIAK) [PEPTIDE NO: 204],Mean cumulative food intake in comparison to saline control,"5 nmoles/kg, over 32 hours",potent and long acting suppression of food intake
same,food intake in comparison to control group treated with native oxyntomodulin,"5 nmoles/kg, over 32 hours",lower than in the control group treated with native oxyntomodulin
D-His Ala Asp Gly Thr Phe Thr Ser Asp Tyr Ser Lys Tyr Leu Glu Glu Glu Leu Val Lys Tyr Phe Ile Glu Trp Leu Met Asn Thr Lys Arg Asn Lys Asn Asn Ile Ala ([dH]ADGTFTSDYSKYLEEELVKYFIEWLMNTKRNKNNIA) [PEPTIDE NO: 153],Mean cumulative food intake in comparison to saline control,"200 mmoles/kg, over 24 hours",potent and long acting suppression of food intake
same,food intake in comparison to control group treated with native oxyntomodulin,"200 mmoles/kg, over 24 hours",lower than in the control group treated with native oxyntomodulin
D-His Ala Asp Gly Thr Phe Thr Ser Asp Tyr Ser Lys Tyr Leu Glu Glu Glu Leu Val Lys Tyr Phe Leu Gln Trp Leu Lys Asn Ala Gly Pro Ser Lys Asn Asn Ile Ala ([dH]ADGTFTSDYSKYLEEELVKYFLQWLKNAGPSKNNIA) [PEPTIDE NO: 148],Mean cumulative food intake in comparison to saline control,"10 nmoles/kg, over 24 hours",potent and long acting suppression of food intake
same,food intake in comparison to control group treated with native oxyntomodulin,"10 nmoles/kg, over 24 hours",lower than in the control group treated with native oxyntomodulin
D-His Ala Gln Gly Thr Phe Thr Ser Asp Tyr Ser Lys Tyr Leu Glu Gln Glu Ile Val Lys Tyr Phe Ile Gln Trp Leu Lys Asn Ala Gly Pro Ser Lys Asn Asn Ile Ala ([dH]AQGTFTSDYSKYLEQEIVKYFIQWLKNAGPSKNNIA) [PEPTIDE NO: 142],Mean cumulative food intake in comparison to saline control,"3 nmoles/kg, over 24 hours",potent and long acting suppression of food intake
same,food intake in comparison to control group treated with native oxyntomodulin,"3 nmoles/kg, over 24 hours",lower than in the control group treated with native oxyntomodulin
D-His Ala Gln Gly Thr Phe Thr Ser Asp Tyr Ser Lys Tyr Leu Glu Glu Glu Leu Val Lys Tyr Phe Leu Gln Trp Leu Lys Asn Ala Gly Pro Ser Lys Asn Asn Ile Ala ([dH]AQGTFTSDYSKYLEEELVKYFLQWLKNAGPSKNNIA) [PEPTIDE NO: 100],Mean cumulative food intake in comparison to saline control,"20 nmoles/kg, over 24 hours",potent and long acting suppression of food intake
same,food intake in comparison to control group treated with native oxyntomodulin,"20 nmoles/kg, over 24 hours",lower than in the control group treated with native oxyntomodulin
D-His Ser Gln Gly Thr Phe Thr Ser Asp Tyr Ser Lys Tyr Leu Glu Gln Glu Ile Val Lys Tyr Phe Ile Gln Trp Leu Lys Asn Ala Gly Pro Ser Lys Asn Asn Ile Ala ([dH]SQGTFTSDYSKYLEQEIVKYFIQWLKNAGPSKNNIA) [PEPTIDE NO: 94],Mean cumulative food intake in comparison to saline control,"5 nmoles/kg, over 24 hours",potent and long acting suppression of food intake
same,food intake in comparison to control group treated with native oxyntomodulin,"5 nmoles/kg, over 24 hours",lower than in the control group treated with native oxyntomodulin
D-His Ser Gln Gly Thr Phe Thr Ser Asp Tyr Ser Lys Tyr Leu Glu Gln Glu Leu Val Lys Tyr Phe Ile Gln Trp Leu Lys Asn Ala Gly Pro Ser Lys Asn Asn Ile Ala ([dH]SQGTFTSDYSKYLEQELVKYFIQWLKNAGPSKNNIA) [PEPTIDE NO: 82],Mean cumulative food intake in comparison to saline control,"10 nmoles/kg, over 24 hours",potent and long acting suppression of food intake
same,food intake in comparison to control group treated with native oxyntomodulin,"10 nmoles/kg, over 24 hours",lower than in the control group treated with native oxyntomodulin

# Reference: patent US8101576B2, “Compounds and their effects on feeding behaviour” (priority 2006, dated 2012)
